These results are taken from patent publication US20260250318A1, “COMPOSITIONS AND METHODS FOR CROSSING THE BLOOD BRAIN BARRIER” (VOYAGER THERAPEUTICS, INC., priority 2022, published 2026).

For the experiment, the system named is brain. As to the kind of experiment: Maturation of TTM-001 capsid, NGS enrichment in brain of CD-1 Outbred mice. To be noted: NGS fold-enrichment of TTM-001 matured AAV capsid variants in the brain of CD-1 Outbred mice; intravenous 1.0×10^12 VG/dose; 14 days in life; RNA; relative to non-matured TTM-001 control. The class given is in vivo. From the text: This Example describes maturation of the TTM-001 (SEQ ID NO: 981 (amino acid) and 983 (DNA), comprising SEQ ID NO: 941) and TTM-002 (SEQ ID NO: 982 (amino acid) and 984 (DNA), comprising SEQ ID NO: 2) capsid variants to further enhance their transduction and biodistribution in the central nervous system and evolve the AAV capsid variants to provide further cross-species compatibility. Two approaches were used to mature the TTM-001 and TTM-002 capsid sequences in order to randomize and mutate within and around the peptide insert comprised within loop IV of the capsid variant. […] In the first maturation approach, sets of three contiguous amino acids were randomized across the mutagenesis region in the TTM-001 and TTM-002 sequences, which spanned from position 450 to position 466, numbered according to SEQ ID NO: 981 and 982. In the second maturation approach, mutagenic primers were used to introduce point mutations at a low frequency, scattered across the mutagenesis region in the TTM-001 and TTM-002 sequences ranging from position 449 to position 466, numbered according to SEQ ID NO: 981 and 982. AAV capsid variants arising from each maturation approach for TTM-001 were pooled together and AAV capsid variants arising from each maturation approach for TTM-002 were also pooled together, for subsequent testing and characterization in mice.
The library of pooled matured AAV capsid variants generated from TTM-001 or library of pooled matured AAV capsid variants generated from the TTM-002 matured AAV capsid variant each were intravenously injected into the tail vein of three female CD-1 Outbred mice (Charles River) at a dose of 1.0×10^12 VG/dose. After 14-days in life, the brains of the mice were isolated and RNA was extracted. Following RNA recovery and RT-PCR amplification, a systematic NGS enrichment analysis was performed to calculate the fold enrichment ratio relative to the corresponding TTM-001 or TTM-002 control, and the peptides comprised within the variants were identified. The data for the TTM-001 matured capsid variants is provided in Table 13 and the data for the TTM-002 matured capsid variants is provided in Table 14.
Consider KTINGSGSPHSKAQLILT, for which the “Fold enrichment over TTM-001” value is reported as 2.358 fold.

As to KTINGSGSPHSKAQEELT, the “Fold enrichment over TTM-001” value stood at 2.162 fold.

With KTINGSGSPHSLRFNQQT, the “Fold enrichment over TTM-001” value is on record as 4.765 fold.

In the case of KTINGSGSPHSKTGRQQT, the “Fold enrichment over TTM-001” value is 2.259 fold.

Take KTINGLTSPHRKAQNQQT: the “Fold enrichment over TTM-001” value stood at 2.663 fold.

Take KTINGSGSPHSKAQVSIT: the “Fold enrichment over TTM-001” value turned out to be 2.028 fold.

For the sequence KTINGSGSPHSKLYMQQT, the “Fold enrichment over TTM-001” value is 2.015 fold.

For KTINGSGSPHSKRRNQQT, the “Fold enrichment over TTM-001” value is on record as 2.877 fold.

For the sequence “KTINGSRSPHRLAQNQQT (peptide inserted in AAV capsid)”, the “Fold enrichment over TTM-001” value was 2.698 fold.

Consider KTINGSGSPHSKTSRQQT, for which the “Fold enrichment over TTM-001” value is listed as 2.132 fold.

On to KTINGSGSPHSKPRLQQT, for which the “Fold enrichment over TTM-001” value amounted to 3.337 fold.

In the case of KTINGCSSPHRKAQNQQT, the “Fold enrichment over TTM-001” value was 2.291 fold.

KTINGNLSPHRKAQNQQT: the “Fold enrichment over TTM-001” value worked out at 2.250 fold.

Turning to KTINGSGSPHSKASRHQT, the “Fold enrichment over TTM-001” value is 2.324 fold.

In the case of KTINGSGSPHSCAQNQQT, the “Fold enrichment over TTM-001” value stood at 2.030 fold.

In the case of KTINGSGSPHSRKLNQQT, the “Fold enrichment over TTM-001” value is given as 3.646 fold.

On to KTINGSGSPHSKSVRQQT, for which the “Fold enrichment over TTM-001” value is 2.259 fold.

Regarding KTINGSGSPHSKAQANRT, the “Fold enrichment over TTM-001” value was 2.255 fold.

With KTRRSSGSPHSKAQNQQT, the “Fold enrichment over TTM-001” value worked out at 2.438 fold.

On to KTINGSGSPHSTWTNQQT, for which the “Fold enrichment over TTM-001” value was 2.307 fold.

On to KTINGSLSPHYMAQNQQT, for which the “Fold enrichment over TTM-001” value is recorded as 2.015 fold.

For the sequence KTINGWRSPHSKAQNQQT, the “Fold enrichment over TTM-001” value is 2.160 fold.

Turning to KTINGSGSPHWVSQNQQT, the “Fold enrichment over TTM-001” value is on record as 2.007 fold.

As to KTINGSGSPHSKAQITLT, the “Fold enrichment over TTM-001” value is recorded as 3.177 fold.

Regarding KTINMSRSPHSKAQNQQT, the “Fold enrichment over TTM-001” value is 2.622 fold.

Regarding “KWSPGSGSPHSKAQNQQT (peptide inserted in AAV capsid)”, the “Fold enrichment over TTM-001” value was 2.764 fold.

KTINMRVSPHSKAQNQQT: the “Fold enrichment over TTM-001” value is 3.073 fold.

With KTINGSGSPHSKAQRHVT, the “Fold enrichment over TTM-001” value amounted to 3.404 fold.

KTINGSGSPHSKAWLIQT: the “Fold enrichment over TTM-001” value amounted to 2.499 fold.

As for KTINGSGSPHSKAQTSRT, the “Fold enrichment over TTM-001” value is 3.421 fold.

In the case of KTINGSGSPHSKRALQQT, the “Fold enrichment over TTM-001” value came out at 2.114 fold.

Take KTINGSGSPHSKALRRQT: the “Fold enrichment over TTM-001” value is reported as 4.330 fold.

Regarding KTINGSGSPHSKSRWQQT, the “Fold enrichment over TTM-001” value is 3.698 fold.

In the case of KTINGKRSPHSKAQNQQT, the “Fold enrichment over TTM-001” value came out at 3.611 fold.

For the sequence KTINGSGSPHTWLQNQQT, the “Fold enrichment over TTM-001” value stood at 2.397 fold.

Turning to “KTINGSRSPHARAQNQQT (peptide inserted in AAV capsid)”, the “Fold enrichment over TTM-001” value worked out at 2.745 fold.

Take KTINGSGSPHSKRSMQQT: the “Fold enrichment over TTM-001” value turned out to be 3.561 fold.

In the case of KTINGSGSPHSKQSRQQT, the “Fold enrichment over TTM-001” value turned out to be 2.156 fold.

Turning to KTINGSGSPHSKASRRQT, the “Fold enrichment over TTM-001” value turned out to be 3.577 fold.

KTINGSCSPHLRAQNQQT: the “Fold enrichment over TTM-001” value is reported as 2.423 fold.

With KTINGSGSPHSLFRNQQT, the “Fold enrichment over TTM-001” value was 4.037 fold.

As for KTINGSGSPHSKAQFRVT, the “Fold enrichment over TTM-001” value amounted to 2.231 fold.

For the sequence KTINGSGSPHCTLQNQQT, the “Fold enrichment over TTM-001” value is recorded as 2.497 fold.

As to KTINGSGSPHSKAQRHAT, the “Fold enrichment over TTM-001” value is on record as 2.264 fold.

As for KTINGSGSPHSKPWLQQT, the “Fold enrichment over TTM-001” value worked out at 2.138 fold.

As to KTINGSGSPHSKAQRLRT, the “Fold enrichment over TTM-001” value amounted to 4.322 fold.

As to KTINGSGSPHSKARRSQT, the “Fold enrichment over TTM-001” value amounted to 3.493 fold.

Regarding KDLRGSGSPHSKAQNQQT, the “Fold enrichment over TTM-001” value is 2.238 fold.

For the sequence KTINGSGSPHSKAKSRQT, the “Fold enrichment over TTM-001” value was determined as 2.739 fold.

For the sequence KTINGFSSPHRKAQNQQT, the “Fold enrichment over TTM-001” value is recorded as 2.276 fold.

As to KTINGSGSPHSKWLLQQT, the “Fold enrichment over TTM-001” value came to 4.521 fold.

Take KTINGSGSPHSKRVGQQT: the “Fold enrichment over TTM-001” value is reported as 2.190 fold.

For KTINGSGSPHSKAQVCLT, the “Fold enrichment over TTM-001” value worked out at 2.182 fold.

In the case of KTINGSGSPHLTWQNQQT, the “Fold enrichment over TTM-001” value is 2.637 fold.

Regarding KTINGSPSPHRKAQNQQT, the “Fold enrichment over TTM-001” value is listed as 2.430 fold.

Consider KTINGSGSPHSKAQKRLT, for which the “Fold enrichment over TTM-001” value was 3.872 fold.

Regarding KTINGSGSPHSKVTRQQT, the “Fold enrichment over TTM-001” value came to 2.397 fold.

As to KTINGSGSPHSKARIMQT, the “Fold enrichment over TTM-001” value came to 2.283 fold.

On to KTINGSGSPHSKAQIRLT, for which the “Fold enrichment over TTM-001” value amounted to 3.279 fold.

Turning to KTINGSGSPHSKAVWRQT, the “Fold enrichment over TTM-001” value is on record as 2.026 fold.

Consider KTINGSMSPHLYAQNQQT, for which the “Fold enrichment over TTM-001” value is on record as 2.354 fold.

Regarding KTINRVISPHSKAQNQQT, the “Fold enrichment over TTM-001” value worked out at 2.169 fold.

Take KTINGSGSPHSKAQLVKT: the “Fold enrichment over TTM-001” value is on record as 2.376 fold.

Take KTINGRASPHVKAQNQQT: the “Fold enrichment over TTM-001” value is given as 2.272 fold.

With KTINGSKSPHRTAQNQQT, the “Fold enrichment over TTM-001” value is recorded as 2.950 fold.

With KTINGSGSPHSKAVRAQT, the “Fold enrichment over TTM-001” value came to 2.538 fold.

With “KTINGSRSPHCSAQNQQT (peptide inserted in AAV capsid)”, the “Fold enrichment over TTM-001” value turned out to be 2.426 fold.

For KTINGSGSPHSKRVLQQT, the “Fold enrichment over TTM-001” value is 2.035 fold.

With KTINGSGSPHSKILWQQT, the “Fold enrichment over TTM-001” value was 2.838 fold.

KTINGSGSPHSRWQNQQT: the “Fold enrichment over TTM-001” value is 3.372 fold.

In the case of KTINGSGSPHSRPRNQQT, the “Fold enrichment over TTM-001” value is listed as 2.164 fold.

On to KTINGSGSPHSKAQLSIT, for which the “Fold enrichment over TTM-001” value was 2.784 fold.

With KTINGSGSPHSKAQSWRT, the “Fold enrichment over TTM-001” value is 2.596 fold.

Consider KTINGSGSPHSKCLNQQT, for which the “Fold enrichment over TTM-001” value is on record as 2.594 fold.

As for KTINGSGSPHSKSCAQQT, the “Fold enrichment over TTM-001” value came to 2.348 fold.

Turning to KTINGSGSPHSKEETQQT, the “Fold enrichment over TTM-001” value came to 2.223 fold.

Regarding KTWVRSGSPHSKAQNQQT, the “Fold enrichment over TTM-001” value is 2.186 fold.

As to KTINGSGSPHSLSCNQQT, the “Fold enrichment over TTM-001” value was 2.605 fold.

KTINGSGSPHSKLARQQT: the “Fold enrichment over TTM-001” value is 3.054 fold.

Turning to KTINGSKSPHRKAQNQQT, the “Fold enrichment over TTM-001” value turned out to be 2.696 fold.

As to KTINGSGSPHSKQTRQQT, the “Fold enrichment over TTM-001” value is 2.650 fold.

Regarding KTINGSGSPHSKRSIQQT, the “Fold enrichment over TTM-001” value came out at 2.063 fold.

For the sequence KTINGSGSPHSKARRLQT, the “Fold enrichment over TTM-001” value is listed as 4.210 fold.

Consider KTINGSGSPHSKAQYRLT, for which the “Fold enrichment over TTM-001” value is 2.088 fold.

Turning to KTINGSGSPHWSVQNQQT, the “Fold enrichment over TTM-001” value amounted to 2.138 fold.

For the sequence KTINGSGSPHPLFQNQQT, the “Fold enrichment over TTM-001” value worked out at 2.233 fold.

As for KTINGSGSPHFLLQNQQT, the “Fold enrichment over TTM-001” value was determined as 2.758 fold.

Regarding KTINGSGSPHSKARFSQT, the “Fold enrichment over TTM-001” value is reported as 2.253 fold.

KTINGSGSPHSRGRNQQT: the “Fold enrichment over TTM-001” value was determined as 4.961 fold.

Turning to KTINGSGSPHALFQNQQT, the “Fold enrichment over TTM-001” value was found to be 2.261 fold.

On to KTINGSGSPHSYLINQQT, for which the “Fold enrichment over TTM-001” value worked out at 2.650 fold.

For the sequence KTINGSGSPHSKSERQQT, the “Fold enrichment over TTM-001” value stood at 2.263 fold.

For KTINGSGSPHSKVRAQQT, the “Fold enrichment over TTM-001” value was 2.412 fold.

In the case of KTINGSGSPHSKNVRQQT, the “Fold enrichment over TTM-001” value worked out at 2.123 fold.

Turning to KTINGSGSPHSKAQHSRT, the “Fold enrichment over TTM-001” value worked out at 3.227 fold.

In the case of KTINTRPSPHSKAQNQQT, the “Fold enrichment over TTM-001” value is 2.011 fold.

KTINGSGSPHSKVPKQQT: the “Fold enrichment over TTM-001” value stood at 2.924 fold.

Turning to KTINGSGSPHSKAQNRRS, the “Fold enrichment over TTM-001” value came to 2.613 fold.

Regarding KTINGSGSPHRRSQNQQT, the “Fold enrichment over TTM-001” value came out at 2.497 fold.

KTINGSGSPHSKRSFQQT: the “Fold enrichment over TTM-001” value turned out to be 2.197 fold.

As for KTINGSGSPHSKAQRRST, the “Fold enrichment over TTM-001” value is listed as 2.993 fold.

As to KTINGSGSPHSKAQNYRA, the “Fold enrichment over TTM-001” value is on record as 2.039 fold.

Consider KTINGSGSPHSFVLNQQT, for which the “Fold enrichment over TTM-001” value turned out to be 3.382 fold.
